Reference: patent publication US6737383B1, “Herbicidal oxadiazolidines” (priority 1999, dated 2004)

Columns and labels:
soybean = experiment: Test B pre/postemergence soybean; type: in vivo, Glycine max
Summary of the method: (§1)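 Response is a visual 0-to-10 score relative to untreated plants, where 0 means no effect and 10 means complete control, taken twelve to sixteen days after application. Treatments went onto soil at planting and onto foliage of 1- to 4-leaf plants, using a surfactant-containing non-phytotoxic solvent.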

blackgrass = experiment: Test B pre/postemergence blackgrass; type: in vivo, Alopecurus myosuroides
Summary of the method: as §1

morningglory = experiment: Test B pre/postemergence morningglory; type: in vivo, Ipomoea hederacea
Summary of the method: as §1

crabgrass = experiment: Test B pre/postemergence crabgrass; type: in vivo, Digitaria sanguinalis
Summary of the method: as §1

bedstraw = experiment: Test B pre/postemergence bedstraw; type: in vivo, Galium aparine
Summary of the method: as §1

cocklebur = experiment: Test B pre/postemergence cocklebur; type: in vivo, Xanthium strumarium
Summary of the method: as §1

surinam grass = experiment: Test B pre/postemergence surinam grass; type: in vivo, Brachiaria decumbens
Summary of the method: as §1

wild oat = experiment: Test B pre/postemergence wild oat; type: in vivo, Avena fatua
Summary of the method: as §1

corn = experiment: Test B pre/postemergence corn; type: in vivo, Zea mays
Summary of the method: as §1

giant foxtail = experiment: Test B pre/postemergence giant foxtail; type: in vivo, Setaria faberii
Summary of the method: as §1

sugar beet = experiment: Test B pre/postemergence sugar beet; type: in vivo, Beta vulgaris
Summary of the method: as §1

purple nutsedge = experiment: Test B pre/postemergence purple nutsedge; type: in vivo, Cyperus rotundus
Summary of the method: as §1

velvetleaf = experiment: Test B pre/postemergence velvetleaf; type: in vivo, Abutilon theophrasti
Summary of the method: as §1

rape = experiment: Test B pre/postemergence rape; type: in vivo, Brassica napus
Summary of the method: as §1

pigweed = experiment: Test B pre/postemergence pigweed; type: in vivo, Amaranthus retroflexus
Summary of the method: as §1

wheat = experiment: Test B pre/postemergence wheat; type: in vivo, Triticum aestivum
Summary of the method: as §1

[1] = Postemergence, Rate 62 g/ha, scale of 0 to 10, 0 is no effect, 10 is complete control
[2] = Postemergence, Rate 125 g/ha, scale 0 to 10, 0 is no effect, 10 is complete control
[3] = Postemergence, Rate 500 g/ha, scale 0 to 10, 0 is no effect, 10 is complete control
[4] = Preemergence, Rate 62 g/ha, scale 0 to 10 (0 no effect, 10 complete control)
[5] = Preemergence, Rate 125 g/ha, scale 0 to 10, 0 is no effect, 10 is complete control
[6] = Preemergence, Rate 500 g/ha, scale of 0 to 10 where 0 is no effect and 10 is complete control
[7] = Rate 250 g/ha, Postemergence, scale of 0 to 10 where 0 is no effect and 10 is complete control

CC(C)N(C(=O)n1oc(=O)n(C(C)C(=O)c2ccccc2)c1=O)c1ccc(Cl)cc1 (stereo not drawn) [Compound 541]
0: Soybean plant response rating (soybean; [1]) | Soybean plant response rating (soybean; [2]) | Soybean plant response rating (soybean; [4]) | Soybean plant response rating (soybean; [5]) | Soybean plant response rating (0 to 10 scale) (soybean; Preemergence, Rate 250 g/ha) | Soybean plant response rating (soybean; [6]) | Blackgrass plant response rating (blackgrass; [1]) | Blackgrass plant response rating (blackgrass; [2]) | Plant response rating, Blackgrass (blackgrass; [3]) | Blackgrass plant response rating (blackgrass; [4]) | Blackgrass plant response rating (blackgrass; [5]) | Blackgrass plant response rating (0 to 10 scale) (blackgrass; Preemergence, Rate 250 g/ha) | Plant response rating, Blackgrass (blackgrass; [7]) | Morningglory plant response rating (morningglory; [1]) | Morningglory plant response rating (morningglory; [4]) | Morningglory plant response rating (morningglory; [5]) | Morningglory plant response rating (0 to 10 scale) (morningglory; Preemergence, Rate 250 g/ha) | Morningglory plant response rating (morningglory; [6]) | Crabgrass plant response rating (crabgrass; [1]) | Crabgrass plant response rating (crabgrass; [2]) | Plant response rating, Crabgrass (crabgrass; [7]) | Bedstraw plant response rating (bedstraw; [1]) | Bedstraw plant response rating (bedstraw; [4]) | Bedstraw plant response rating (bedstraw; [5]) | Bedstraw plant response rating (0 to 10 scale) (bedstraw; Preemergence, Rate 250 g/ha) | Cocklebur plant response rating (cocklebur; [1]) | Cocklebur plant response rating (cocklebur; [2]) | Cocklebur plant response rating (cocklebur; [5]) | B. signalgrass plant response rating (surinam grass; [1]) | B. signalgrass plant response rating (surinam grass; [2]) | B. signalgrass plant response rating (surinam grass; [4]) | B. signalgrass plant response rating (surinam grass; [5]) | B. signalgrass plant response rating (0 to 10 scale, 0 is no effect, 10 is complete control) (surinam grass; Preemergence, Rate 250 g/ha) | Plant response rating, B. signalgrass (surinam grass; [7]) | Wild oats plant response rating (wild oat; [1]) | Wild oats plant response rating (wild oat; [2]) | Wild oats plant response rating (wild oat; [4]) | Wild oats plant response rating (wild oat; [5]) | Plant response rating, Wild oats (wild oat; [7]) | Corn plant response rating (corn; [1]) | Corn plant response rating (corn; [2]) | Plant response rating, Corn (corn; [3]) | Corn plant response rating (corn; [4]) | Corn plant response rating (corn; [5]) | Corn plant response rating (0 to 10 scale) (corn; Preemergence, Rate 250 g/ha) | Corn plant response rating (corn; [6]) | Plant response rating, Corn (corn; [7]) | Giant foxtail plant response rating (giant foxtail; [1]) | Giant foxtail plant response rating (giant foxtail; [2]) | Plant response rating, Giant foxtail (giant foxtail; [7]) | Sugarbeets plant response rating (sugar beet; [1]) | Sugarbeets plant response rating (sugar beet; [2]) | Sugarbeets plant response rating (sugar beet; [4]) | Sugarbeets plant response rating (sugar beet; [5]) | Sugarbeets plant response rating (0 to 10 scale) (sugar beet; Preemergence, Rate 250 g/ha) | Plant response rating, Sugarbeets (sugar beet; [7]) | Nutsedge plant response rating (purple nutsedge; [1]) | Nutsedge plant response rating (purple nutsedge; [2]) | Plant response rating, Nutsedge (purple nutsedge; [3]) | Nutsedge plant response rating (purple nutsedge; [5]) | Nutsedge plant response rating (0 to 10 scale) (purple nutsedge; Preemergence, Rate 250 g/ha) | Nutsedge plant response rating (purple nutsedge; [6]) | Plant response rating, Nutsedge (purple nutsedge; [7]) | Velvetleaf plant response rating (velvetleaf; [1]) | Velvetleaf plant response rating (velvetleaf; [2]) | Plant response rating, Velvetleaf (velvetleaf; [3]) | Velvetleaf plant response rating (velvetleaf; [4]) | Velvetleaf plant response rating (velvetleaf; [5]) | Velvetleaf plant response rating (0 to 10 scale) (velvetleaf; Preemergence, Rate 250 g/ha) | Velvetleaf plant response rating (velvetleaf; [6]) | Plant response rating, Velvetleaf (velvetleaf; [7]) | Rape plant response rating (rape; [1]) | Rape plant response rating (rape; [2]) | Rape plant response rating (rape; [4]) | Rape plant response rating (rape; [5]) | Rape plant response rating (0 to 10 scale) (rape; Preemergence, Rate 250 g/ha) | Rape plant response rating (rape; [6]) | Redroot pigweed plant response rating (pigweed; [1]) | Redroot pigweed plant response rating (pigweed; [2]) | Redroot pigweed plant response rating (pigweed; [4]) | Redroot pigweed plant response rating (pigweed; [5]) | Redroot pigweed plant response rating (0 to 10 scale) (pigweed; Preemergence, Rate 250 g/ha) | Redroot pigweed plant response rating (pigweed; [6]) | Plant response rating, Redroot pigweed (pigweed; [7]) | Wheat plant response rating (wheat; [1]) | Wheat plant response rating (wheat; [2]) | Plant response rating, Wheat (wheat; [3]) | Wheat plant response rating (wheat; [4]) | Wheat plant response rating (wheat; [5]) | Plant response rating, Wheat (wheat; [7])
3: Plant response rating, Morningglory (morningglory; [3]) | Plant response rating, Crabgrass (crabgrass; [3]) | Bedstraw plant response rating (bedstraw; [6]) | Plant response rating, Rape (rape; [3]) | Plant response rating, Rape (rape; [7]) | Plant response rating, Redroot pigweed (pigweed; [3]) | Wheat plant response rating (0 to 10 scale) (wheat; Preemergence, Rate 250 g/ha) | Wheat plant response rating (wheat; [6])
4: Plant response rating, Sugarbeets (sugar beet; [3])
2: Plant response rating, Soybean (soybean; [3]) | Blackgrass plant response rating (blackgrass; [6]) | Plant response rating, B. signalgrass (surinam grass; [3]) | Plant response rating, Wild oats (wild oat; [3]) | Plant response rating, Giant foxtail (giant foxtail; [3]) | Sugarbeets plant response rating (sugar beet; [6])
5: Crabgrass plant response rating (crabgrass; [4]) | Crabgrass plant response rating (crabgrass; [5]) | Plant response rating, Bedstraw (bedstraw; [3]) | Plant response rating, Bedstraw (bedstraw; [7]) | Plant response rating, Cocklebur (cocklebur; [3]) | Plant response rating, Cocklebur (cocklebur; [7]) | B. signalgrass plant response rating (surinam grass; [6]) | Wild oats plant response rating (0 to 10 scale) (wild oat; Preemergence, Rate 250 g/ha) | Wild oats plant response rating (wild oat; [6])
1: Plant response rating, Soybean (soybean; [7]) | Morningglory plant response rating (morningglory; [2]) | Plant response rating, Morningglory (morningglory; [7])
7: Giant foxtail plant response rating (giant foxtail; [4])
10: Crabgrass plant response rating (0 to 10 scale) (crabgrass; Preemergence, Rate 250 g/ha) | Crabgrass plant response rating (crabgrass; [6]) | Giant foxtail plant response rating (giant foxtail; [5]) | Giant foxtail plant response rating (0 to 10 scale) (giant foxtail; Preemergence, Rate 250 g/ha) | Giant foxtail plant response rating (giant foxtail; [6])
